Test results taken from patent US7541367B2, “3-benzoimidazolyl-pyrazolopyridines useful in treating kinase disorders” (Janssen Pharmaceutica, N.V., priority 2005, dated 2009).

What was measured:
[1] = biological target: T1, CDK1 (Homo sapiens, UniProt P06493); assay: CDK-1 kinase screening assay (33P-ATP FlashPlate); assay type: biochemical; conditions: human CDK1 with cyclin B; 10 μM ATP; 1 hr at 30° C
T1 construct: purchased New England Biolabs, Beverly, Mass; 6020; host or cells: insect cells
T1 sequence (P06493 whole entry): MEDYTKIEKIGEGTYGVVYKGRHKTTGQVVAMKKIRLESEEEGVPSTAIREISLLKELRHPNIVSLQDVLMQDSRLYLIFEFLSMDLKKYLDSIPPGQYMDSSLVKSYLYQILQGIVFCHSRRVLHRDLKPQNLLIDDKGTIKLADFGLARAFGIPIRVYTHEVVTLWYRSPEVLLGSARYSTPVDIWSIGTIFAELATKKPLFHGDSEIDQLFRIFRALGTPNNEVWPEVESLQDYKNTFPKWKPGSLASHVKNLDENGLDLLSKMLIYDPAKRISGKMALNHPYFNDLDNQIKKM
T1 sequence (P14635 whole entry partner): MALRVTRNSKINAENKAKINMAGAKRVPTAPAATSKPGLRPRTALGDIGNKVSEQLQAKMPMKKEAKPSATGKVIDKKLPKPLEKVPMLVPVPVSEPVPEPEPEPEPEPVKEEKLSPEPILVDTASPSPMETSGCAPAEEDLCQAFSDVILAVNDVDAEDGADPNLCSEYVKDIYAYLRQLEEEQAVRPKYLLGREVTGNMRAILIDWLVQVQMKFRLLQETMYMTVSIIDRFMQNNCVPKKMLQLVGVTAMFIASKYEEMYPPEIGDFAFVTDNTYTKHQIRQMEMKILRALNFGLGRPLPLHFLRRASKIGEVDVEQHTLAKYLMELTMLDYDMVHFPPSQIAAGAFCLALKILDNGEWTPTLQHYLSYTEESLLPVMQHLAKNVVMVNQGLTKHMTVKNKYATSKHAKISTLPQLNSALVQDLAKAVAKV
Method: A kinase reaction mixture was prepared containing 50 mM Tris-HCl pH=8, 10 mM MgCl2, 0.1 mM […], 1 mM DTT, 10 μM ATP, 0.025 μM biotinylated histone-H1 peptide substrate and 0.2 μCuries per well ^33P-γ-ATP (2000-3000 Ci/mmol). 70 μL of the kinase reaction mixture was dispensed into the well of a streptavidin coated FlashPlate™ (Cat. # SMP103, NEN, Boston, Mass.).
Test compound stock in 100% DMSO (1 μL) was added to the wells resulting in a final concentration of 1% DMSO in the reaction with a 100 μL final reaction volume. Each enzyme was diluted in 50 mM Tris-HCl pH=8.0, 0.11% BSA and 30 μL was added to each well to initiate the reaction. The reaction was incubated for one hour at 30° C. At the end of the 1 hr incubation, the reaction was terminated by aspirating the mixture from the plate and washing the wells twice with PBS containing 100 mM EDTA. The biotinylated peptide substrate became immobilized on the Flashplate™ and the incorporation of ^33P-γ-ATP was measured by reading the plate on a scintillation counter. Inhibition of the enzymatic activity was measured by observing a reduced amount of ^33P-γ-ATP incorporated into the immobilized peptide.
The CDK1 enzyme was isolated from insect cells expressing both the human CDK1 catalytic subunit (Accession number NM_001786) and its positive regulatory subunit cyclin B (New England Biolabs, Beverly, Mass.; Cat. # 6020). The assay used 30 ng of the N-terminal biotinylated peptide biotin-[…]-amide (Cyclin dependent kinase 1) per well.
A maximum and minimum signal for the assay was determined on each plate. The percent inhibition of a test compound was calculated according to the formula: […]
For a series of test concentrations, the IC50 was derived by graphing percent inhibition against the log of the concentrations tested for a given compound with results shown in Table 1.
For compounds with multiple values, each value represents a separate assay result.

[2] = biological target: T2, VEGF-R2 (Rattus norvegicus, UniProt O08775); assay: VEGF-R2 kinase screening assay (33P-ATP FlashPlate); assay type: biochemical; conditions: rat VEGF-R2 kinase domain; 10 μM ATP; 1 hr at 30° C;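 also: Read-out is ³³P incorporation from ³³P-γ-ATP into biotinylated peptide substrate captured on streptavidin FlashPlate, counted by scintillation, 1% DMSO final, inhibition scaled between per-plate maximum and minimum signals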
T2 construct: polyhistidine (N)
T2 sequence (O08775 786-1343): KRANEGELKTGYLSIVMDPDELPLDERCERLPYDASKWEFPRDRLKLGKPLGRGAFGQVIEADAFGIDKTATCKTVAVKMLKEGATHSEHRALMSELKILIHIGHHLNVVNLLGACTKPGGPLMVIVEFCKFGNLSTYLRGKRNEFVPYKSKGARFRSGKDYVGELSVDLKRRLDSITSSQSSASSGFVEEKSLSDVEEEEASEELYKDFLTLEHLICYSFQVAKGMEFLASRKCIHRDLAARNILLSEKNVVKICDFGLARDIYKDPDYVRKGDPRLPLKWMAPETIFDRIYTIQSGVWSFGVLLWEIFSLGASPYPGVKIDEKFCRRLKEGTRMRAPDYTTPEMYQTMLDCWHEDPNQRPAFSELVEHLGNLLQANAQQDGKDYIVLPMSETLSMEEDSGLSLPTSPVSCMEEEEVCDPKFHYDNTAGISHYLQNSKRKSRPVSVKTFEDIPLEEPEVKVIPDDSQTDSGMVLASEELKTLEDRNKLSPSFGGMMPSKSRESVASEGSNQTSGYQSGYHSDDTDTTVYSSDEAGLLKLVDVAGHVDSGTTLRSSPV

[3] = biological target: T3, HER2 (Homo sapiens, UniProt P04626); assay: HER2 kinase screening assay (33P-ATP FlashPlate); assay type: biochemical; conditions: GST-HIS6 HER-2 aa 679 to 1255; 10 μM ATP; 1 hr at 30° C;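 also: Biotin-poly(GT) 4:1 peptide captured on streptavidin FlashPlate, 33P transfer from γ-ATP read by scintillation counting, lower incorporation means inhibition, 1% DMSO final, 100 µL reaction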
T3 construct: GST (Glutathione-S-Transferase) (N); HIS6 (N); thrombin cleavage site (N); purchased Proqinase, Freiburg, Germany
T3 sequence (P04626 679-1255): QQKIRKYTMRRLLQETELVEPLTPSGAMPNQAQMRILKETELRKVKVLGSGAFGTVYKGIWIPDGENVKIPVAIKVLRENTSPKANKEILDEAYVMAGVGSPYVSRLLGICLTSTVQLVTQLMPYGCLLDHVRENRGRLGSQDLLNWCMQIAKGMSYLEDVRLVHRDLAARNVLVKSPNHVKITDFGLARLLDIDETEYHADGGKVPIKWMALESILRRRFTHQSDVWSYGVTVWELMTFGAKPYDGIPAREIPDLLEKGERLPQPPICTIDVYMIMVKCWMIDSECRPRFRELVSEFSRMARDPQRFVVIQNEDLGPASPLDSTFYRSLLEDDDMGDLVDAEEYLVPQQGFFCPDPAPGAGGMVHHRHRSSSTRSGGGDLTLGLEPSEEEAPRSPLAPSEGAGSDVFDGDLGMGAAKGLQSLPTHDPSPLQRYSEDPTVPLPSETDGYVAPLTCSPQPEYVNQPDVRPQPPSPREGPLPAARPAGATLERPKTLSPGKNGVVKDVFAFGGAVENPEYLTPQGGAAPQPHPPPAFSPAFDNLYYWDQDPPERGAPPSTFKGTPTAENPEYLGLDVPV

[4] = biological target: T4, Aurora-A (Mus musculus, UniProt P97477); assay: Aurora-A kinase screening assay (33P-ATP FlashPlate); assay type: biochemical; conditions: 10 μM ATP, 1 hr at 30° C;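 also: His-tagged mouse Aurora-A phosphorylating a biotinylated peptide captured on streptavidin plates, read as 33P uptake by scintillation counting, 1% DMSO, inhibition scaled between per-plate maximum and minimum signals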
T4 construct: polyhistidine (N)
T4 sequence (P97477 1-395): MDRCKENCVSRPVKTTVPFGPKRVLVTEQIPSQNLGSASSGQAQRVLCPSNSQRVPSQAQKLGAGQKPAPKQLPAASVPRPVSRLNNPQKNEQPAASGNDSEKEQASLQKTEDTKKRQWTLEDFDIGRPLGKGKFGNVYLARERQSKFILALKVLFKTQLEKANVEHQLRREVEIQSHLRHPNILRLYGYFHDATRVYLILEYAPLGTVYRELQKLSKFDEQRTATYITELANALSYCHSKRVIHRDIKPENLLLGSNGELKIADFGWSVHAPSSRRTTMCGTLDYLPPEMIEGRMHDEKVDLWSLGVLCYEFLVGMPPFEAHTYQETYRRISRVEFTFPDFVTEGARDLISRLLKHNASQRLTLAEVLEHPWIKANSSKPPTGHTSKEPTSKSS

[5] = biological target: T5, RET (Homo sapiens, UniProt P07949); assay: RET kinase screening assay (33P-ATP FlashPlate); assay type: biochemical; conditions: human RET kinase domain; 10 μM ATP; 1 hr at 30° C;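 also: biotinylated peptide substrate captured on streptavidin FlashPlate, 33P phosphate transfer read by scintillation counting, 1% DMSO, lower incorporation means inhibition, percent relative to per-plate maximum and minimum signals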
T5 construct: polyhistidine (N)
T5 sequence (P07949 658-1114 limits assumed): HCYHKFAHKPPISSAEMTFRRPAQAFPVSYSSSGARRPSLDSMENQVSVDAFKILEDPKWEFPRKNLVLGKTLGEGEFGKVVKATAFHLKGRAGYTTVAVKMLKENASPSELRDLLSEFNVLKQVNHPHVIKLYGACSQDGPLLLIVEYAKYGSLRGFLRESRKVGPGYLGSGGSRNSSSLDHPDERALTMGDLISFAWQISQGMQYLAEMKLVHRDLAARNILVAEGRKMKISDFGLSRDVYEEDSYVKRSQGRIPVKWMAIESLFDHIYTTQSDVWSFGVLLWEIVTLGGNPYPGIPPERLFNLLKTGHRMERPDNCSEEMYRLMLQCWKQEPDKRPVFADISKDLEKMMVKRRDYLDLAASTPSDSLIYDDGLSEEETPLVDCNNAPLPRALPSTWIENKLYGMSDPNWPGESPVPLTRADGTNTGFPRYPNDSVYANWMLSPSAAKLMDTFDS

[6] = tested on: HeLa cervical adenocarcinoma; assay: Cell Proliferation Inhibition Assay (14C-thymidine incorporation), HeLa; assay type: cell-based; conditions: Homo sapiens, HeLa cells;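 also: test compound in DMSO added to cells seeded in scintillating 96-well plates, DMSO-only wells as control, uptake of methyl 14C-thymidine into new DNA counted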
[7] = tested on: A375 malignant melanoma; assay: Cell Proliferation Inhibition Assay (14C-thymidine incorporation), A375; assay type: cell-based; conditions: Homo sapiens, A-375, A375 cells;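 also: proliferation measured by radiolabelled thymidine uptake into new DNA, counted in scintillating 96-well plates, compound-treated wells compared with DMSO-only control wells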
[8] = tested on: HCT-116 colon carcinoma; assay: Cell Proliferation Inhibition Assay (14C-thymidine incorporation), HCT-116; assay type: cell-based; conditions: Homo sapiens;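 also: proliferation measured as methyl 14C-thymidine uptake into new DNA, counted in 96-well scintillating microplates, compared with DMSO-only control wells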

Structure (SMILES) | IC50 [1] | IC50 [2] | IC50 [3] | IC50 [4] | IC50 [5] | IC50 ([6]; HeLa) | IC50 [7] | IC50 ([8]; HCT-116, HCT-116 cells) | IC50 [6] | IC50 ([8]; HCT-116 cells)
CCOCCOCc1cccc2[nH]c(-c3n[nH]c4ncc(-c5cncc6ccccc56)cc34)nc12 [Cpd 16, 4-{3-[4-(2-ethoxy-ethoxymethyl)-1H-benzoimidazol-2-yl]-1H-pyrazolo[3,4-b]pyridin-5-yl}-isoquinoline] | 65.5 nM | 60.7 nM | > 100000 nM | > 1000 nM | > 1000 nM | 632 nM | 910 nM | 237 nM |  | 
CN(C)CCNC(=O)c1cccc2[nH]c(-c3n[nH]c4ncc(-c5cncc6ccccc56)cc34)nc12 [Cpd 25, 2-(5-isoquinolin-4-yl-1H-pyrazolo[3,4-b]pyridin-3-yl)-1H-benzoimidazole-4-carboxylic acid (2-dimethylamino-ethyl)-amide] | 113 nM | ~100000 nM | > 10000 nM | > 1000 nM | > 100000 nM | 3800 nM | 2020 nM | 1220 nM |  | 
CN(C)CCN(C)C(=O)c1cccc2[nH]c(-c3n[nH]c4ncc(-c5cncc6ccccc56)cc34)nc12 [Cpd 26, 2-(5-isoquinolin-4-yl-1H-pyrazolo[3,4-b]pyridin-3-yl)-1H-benzoimidazole-4-carboxylic acid (2-dimethylamino-ethyl)-methyl-amide] | 244 nM | > 10000 nM | > 10000 nM | 12100 nM | ~100000 nM | 1160 nM | 1210 nM | 890 nM |  | 
CC(C)OCc1cccc2[nH]c(-c3n[nH]c4ncc(-c5cncc6ccccc56)cc34)nc12 [Cpd 32, 4-[3-(4-isopropoxymethyl-1H-benzoimidazol-2-yl)-1H-pyrazolo[3,4-b]pyridin-5-yl]-isoquinoline] | 98.7 nM | ~100 nM | > 100000 nM | > 1000 nM | > 100000 nM |  | 905 nM |  | 2140 nM | 2880 nM
COCc1cccc2[nH]c(-c3n[nH]c4ncc(-c5ccc(S(N)(=O)=O)cc5)cc34)nc12 [Cpd 36, 4-[3-(4-methoxymethyl-1H-benzoimidazol-2-yl)-1H-pyrazolo[3,4-b]pyridin-5-yl]benzenesulfonamide] | 546 nM | 436 nM | > 100000 nM | > 1000 nM | > 10000 nM | 1430 nM | 212 nM | 43.4 nM |  | 
COCc1cccc2[nH]c(-c3n[nH]c4ncc(-c5cn(S(=O)(=O)c6ccccc6)c6ccccc56)cc34)nc12 [Cpd 38, 5-(1-benzenesulfonyl-1H-indol-3-yl)-3-(4-methoxymethyl-1H-benzoimidazol-2-yl)-1H-pyrazolo[3,4-b]pyridine] | > 10000 nM | > 1000 nM | > 100000 nM | ~100000 nM | > 100000 nM | 1900 nM | 56.8 nM | 39.4 nM |  | 

Further lines, with some results ahead:

IC50 [1] | IC50 [2] | IC50 [3] | IC50 [4] | IC50 [5] | IC50 ([6]; HeLa) | IC50 [7] | IC50 ([8]; HCT-116, HCT-116 cells) | Structure (SMILES) | IC50 [6] | IC50 ([8]; HCT-116 cells)
541 nM | > 10000 nM | > 100000 nM | > 10000 nM | > 100000 nM | > 10000 nM | > 10000 nM | > 10000 nM | O=C(O)c1cccc2[nH]c(-c3n[nH]c4ncc(-c5cncc6ccccc56)cc34)nc12 [Cpd 17, 2-(5-isoquinolin-4-yl-1H-pyrazolo[3,4-b]pyridin-3-yl)-1H-benzoimidazole-4-carboxylic acid] |  | 
162 nM | 2790 nM | > 10000 nM | 4830 nM | > 10000 nM | 804 nM | 472 nM | 899 nM | O=C(c1cccc2[nH]c(-c3n[nH]c4ncc(-c5cncc6ccccc56)cc34)nc12)N1CCCC1 [Cpd 21, [2-(5-isoquinolin-4-yl-1H-pyrazolo[3,4-b]pyridin-3-yl)-1H-benzoimidazole-4-yl]-pyrrolidin-1-yl-methanone] |  | 
137 nM | 2120 nM | > 10000 nM | 1990 nM | ~100000 nM | 594 nM | 188 nM | 554 nM | O=C(c1cccc2[nH]c(-c3n[nH]c4ncc(-c5cncc6ccccc56)cc34)nc12)N1CCCCC1 [Cpd 22, [2-(5-isoquinolin-4-yl-1H-pyrazolo[3,4-b]pyridin-3-yl)-1H-benzoimidazol-4-yl]-piperidin-1-yl-methanone] |  | 
1630 nM | 6930 nM | > 10000 nM | 10900 nM | > 100000 nM | 6580 nM | 2760 nM | 3170 nM | CN1CCN(C(=O)c2cccc3[nH]c(-c4n[nH]c5ncc(-c6cncc7ccccc67)cc45)nc23)CC1 [Cpd 23, [2-(5-isoquinolin-4-yl-1H-pyrazolo[3,4-b]pyridin-3-yl)-1H-benzoimidazole-4-yl]-(4-methyl-piperazin-1-yl)-methanone] |  | 
42 nM | 4620 nM | > 10000 nM | 2790 nM | ~100000 nM | 460 nM | 490 nM | 743 nM | O=C(c1cccc2[nH]c(-c3n[nH]c4ncc(-c5cncc6ccccc56)cc34)nc12)N1CCOCC1 [Cpd 24, [2-(5-isoquinolin-4-yl-1H-pyrazolo[3,4-b]pyridin-3-yl)-1H-benzoimidazole-4-yl]-morpholin-4-yl-methanone] |  | 
31.7 nM | 1040 nM | > 10000 nM | > 1000 nM | > 1000 nM | 163 nM | 75.2 nM | 78.7 nM | O=C(NC1CCCC1)c1cccc2[nH]c(-c3n[nH]c4ncc(-c5cncc6ccccc56)cc34)nc12 [Cpd 27, 2-(5-isoquinolin-4-yl-1H-pyrazolo[3,4-b]pyridin-3-yl)-1H-benzoimidazole-4-carboxylic acid cyclopentylamide] |  | 
724 nM | > 100000 nM | > 10000 nM | > 10000 nM | > 100000 nM | 26900 nM | 5620 nM | 4990 nM | CN1CCC(NC(=O)c2cccc3[nH]c(-c4n[nH]c5ncc(-c6cncc7ccccc67)cc45)nc23)CC1 [Cpd 28, 2-(5-isoquinolin-4-yl-1H-pyrazolo[3,4-b]pyridin-3-yl)-1H-benzoimidazole-4-carboxylic acid (1-methyl-piperidin-4-yl)-amide] |  | 
11.6 nM | 232 nM | > 100000 nM | ~1000 nM | ~1000 nM | 205 nM | 69.7 nM | 255 nM | O=C(NC1CCC(O)CC1)c1cccc2[nH]c(-c3n[nH]c4ncc(-c5cncc6ccccc56)cc34)nc12 (stereo not shown) [Cpd 29, 2-(5-isoquinolin-4-yl-1H-pyrazolo[3,4-b]pyridin-3-yl)-1H-benzoimidazole-4-carboxylic acid (4-hydroxy-cyclohexyl)-amide] |  | 
